Source: patent US10390521B2, “Parkinsons disease model and methods” (Boston Medical Center Corporation, priority 2013, dated 2019)

Columns and labels:
[1] = test system: store-operated Ca^2+ entry (SOCE); assay: Ca^2+ imaging, store-operated Ca^2+ entry in MEFs; assay type: cell-based, mouse; details: MEFs from WT mice
Protocol: (§1) MEFs were cultured in glass bottom dishes coated with fibronectin (2.5 μg/cm^2, Sigma, St. Louis, Mo., USA) for 24-48 hours. Intracellular Ca^2+ measurements were done similar to published earlier (57). Briefly, the cells were loaded with fura-2/AM (5 μM) (Invitrogen), and cytosolic Ca^2+ (measured as F340/F380 ratio) was recorded simultaneously in 10-20 individual cells using a dual-excitation fluorescence imaging system (Intracellular Imaging, USA): representative traces show an average (±SEM) for 10-20 cells recorded simultaneously. Ca^2+ changes were calculated as Δ Ratio(F340/F380), which is the difference between the basal and peak values of Ca^2+ responses.
(§2) The following treatments were used in Ca^2+ studies (FIG. 14): TPEN (N,N,N′,N′-Tetrakis(2-pyridylmethyl)ethylenediamine, Sigma, USA) was applied (400 μM) directly to the cells during recording, 3 min before 2 mM Ca^2+ addition; (S)-BEL ((S)-bromoenol lactone, Cayman, USA) was applied (50 μM for 20 min in serum-free medium at 37° C.) to the cells after their loading with fura-2/AM, and was washed away before the start of experiment; EGTA (2.5 mM) was added to 2 mM Ca^2+-containing bath solution right before ionomycin (IM, 1 μM) application.

PLA2g6 = PLA2g6 catalytic activity in homogenates of brain or MEFs; assay type: biochemical, mouse; details: no differences between KO^Ex2 and WT
Protocol: The activity of PLA2g6 (FIG. 14) was determined using modified PLA2 assay kit (Cayman, USA), as previously described (56, 63). Briefly, after each experimental treatment, MEFs were homogenized using a cold lysis buffer (10 mM Tris-HCl, pH 7.0, 300 mM sucrose, 0.5% Triton X-100). To identify specific activity of Ca^2+-independent PLA2g6, the assay buffers were modified to contain no Ca^2+, and phospholipase activity was assayed by incubating the samples with the substrate, 1-hexadecyl-2-arachidonoylthio-2-deoxy-sn-glycero-3-phosphorylcholine for 1 h at room temperature in a modified Ca^2+-free assay buffer (10 mM HEPES, pH 7.4, 300 mM NaCl, 60% glycerol, 8 mM Triton X-100, 4 mM EGTA, and 2 mg/ml bovine serum albumin). The generated free thiols were visualized by the addition of DTNB (5,5′-dithiobis(2-[…])) for 5 min, and the absorbance was determined at 405 nm using a standard microplate reader. In calculations of specific PLA2g6 activity a value of 10 mM^−1 was used as extinction coefficient for DTNB at 405 nm. Summary data present average (±SEM) from 3 independent experiments for each condition.

KO^Ex2 mice = assay: L-DOPA challenge, beam balance test; assay type: in vivo, mouse
Protocol: The balance beam test (FIG. 10d) was performed using standard approach (55). […] KO^ex2 and WT males from 8 to 24 month of age were tested. Each mouse was placed on a beam for 2 minutes, and its movement was recorded by video camera. The total travel distance, the number of missteps (paw faults, or slips) during travel were analyzed for each mouse, and data summarized for each group as mean±SEM; the numbers of animals used for each time point is identified on the graphs. L-DOPA challenge test (FIG. 10e) was performed on KO^ex2 and WT littermates mice at 12, 16 and 24 months of age. Control beam balance test was performed in the morning a day before L-DOPA challenge. In the morning of the following day, all mice received a single dose of L-3,4-dihydroxyphenylalanine (L-DOPA) via peritoneal injection. Three different doses (5, 10 and 25 mg/kg, Sigma) were tested on the same groups of animals in separate experiments performed with 2-3 days intervals. During each test 20 minutes before L-DOPA administration, mice were given 6 mg/kg of Benserazide (Sigma) to inhibit peripheral DOPA decarboxylase. Beam balance test was done 1 h after L-DOPA injection, as described above. Video-recorded data for each mouse were analyzed later, and summarized for each group as mean±SEM; the numbers of animals used for these studies is identified on the graphs.

[2] = test system: intracellular Ca^2+ stores; assay: Ca^2+ imaging, ionomycin-induced Ca^2+ release from intracellular stores in MEFs; assay type: cell-based, mouse; details: MEFs from KO^Ex2 mice compared to WT; IM 1 μM, extracellular EGTA
Protocol: as §1, §2

O=C1O/C(=C/Br)CC[C@H]1c1cccc2ccccc12 [S-BEL, (S)-bromoenol lactone]
effect on TPEN-induced Ca^2+ entry ([1]; S-BEL 50 μM for 20 min pretreatment): S-BEL-sensitive
effect on PLA2g6 catalytic activity (PLA2g6): inhibition

O=C(O)CN(CCOCCOCCN(CC(=O)O)CC(=O)O)CC(=O)O [EGTA]
effect on PLA2g6 catalytic activity (PLA2g6): activation

N[C@@H](Cc1ccc(O)c(O)c1)C(=O)O [L-DOPA, L-3,4-dihydroxyphenylalanine]
number of missteps in beam balance test (KO^Ex2 mice; KO^Ex2 mice at 12, 16 and 24 months, L-DOPA 5-25 mg/kg, dose and age-dependent manner): significantly reduced
motor performance (PD-like motor dysfunction) (KO^Ex2 mice; KO^Ex2 mice, L-DOPA 5-25 mg/kg peritoneal injection, Benserazide 6 mg/kg 20 min before, test 1 h after injection): significantly improved

C[C@H](CCC(=O)O)C[C@H](C)C[C@H](C)C(=O)/C=C(\O)[C@H](C)C[C@H](C)C/C=C/[C@@H](C)[C@@H](O)[C@@H](C)[C@@H](O)C[C@@H]1CC[C@@](C)([C@H]2CC[C@@](C)([C@@H](C)O)O2)O1 [ionomycin]
decrease in the peak of Ca^2+ release caused by ionomycin [2]: 60%

c1ccc(CN(CCN(Cc2ccccn2)Cc2ccccn2)Cc2ccccn2)nc1 [TPEN, N,N,N′,N′-Tetrakis(2-pyridylmethyl)ethylenediamine]
store-operated Ca^2+ entry ([1]; TPEN 400 μM): activated
